Reference: patent publication US12157742B2, “Kinase inhibitors exhibiting anti-cancer activity and their method of use” (ALLCRON PHARMA INC., priority 2018, dated 2024)
Structures can show the parent of a compound that is named as a salt.

What was measured:
Set-up in all cases: cell survival: unit of the concentration uncertain
[1] = system: Ph+ALL cell line BV173-T315I; experiment: Cytotoxicity assay, BV173-T315I cells; assay type: cell-based
Experimental: (§1) Cytotoxicity assay: CML patient derived cell lines K562 expressing BCR-ABL T315I, Ph+ALL cell line BV173-T315I, and mouse cell line Ba/F3 T315I were used for cytotoxicity testing. All these cell lines express T315I mutant of BCR-ABL. BV-173-T315I is also a model for blast crisis, the terminal stage in CML. Cell lines were cultured in Iscove's Modified Dulbecco's Medium (IMDM) containing L-glutamine and 25 mM Hepes. The cells were maintained at 37° C. in a humidified CO2 incubator. For cytotoxicity measurement 5000-8000 cells were plated into 96 well plates in quadruplicates. Drugs were dissolved in DMSO and cells were treated in increasing doses ranging from 1 to 10^7 fold. Control cells were treated with respective amounts of DMSO. Cells were incubated for 72 hours and, at the end of the incubation point cell, viability was determined. For this purpose, 25 μl of the cell culture from the 96 well plates were transferred to Ultracruz® black bottom 96 well plates (Santa Cruz Biotechnology) and 25 μl of a live cell detecting fluorescent reagent (Cellular Technology Limited (“CTL”)) was added to the cells. The cells and the CTL reagent was mixed thoroughly and centrifuged for 5 min, at the standard g levels normally used to accelerate settling of the cells to the bottom of the culture medium container without damaging the living cells, and the fluorescence was detected at 405 nm excitation using a CTL scanner. Viable cells will fluoresce green and the machine automatically scans and counts the number of viable cells from each well. The percentage of viable cells in drug treated samples relative to the number of viable cells in DMSO treated samples was then calculated. The data obtained were analyzed using Prism nonlinear regression software (Graphpad Software) for the curve fitting and determination of IC50 values.

[2] = system: K562 expressing BCR-ABL T315I; experiment: Cytotoxicity assay, K562-T315I cells; assay type: cell-based, human
Experimental: as §1

[3] = system: mouse cell line Ba/F3 T315I; experiment: Cytotoxicity assay, Ba/F3-T315I cells; assay type: cell-based; conditions: for cancer cell survival rate compared to the DMSO control: 72 hours
Experimental: as §1

[4] = about 10^−6 M to about 10^−5 M, 72 hours

## Cc1cccc(Cl)c1NC(=O)CSc1nc2cc3c(cc2cc1C#N)OCCO3 [AP-R342, N-(2-chloro-6-methylphenyl)-2-({8-cyano-2H,3H-[1,4]dioxino[2,3-g]quinolin-7-yl}sulfanyl)acetamide]
[1]; [4]
  cancer cell survival rate compared to the DMSO control: less than 7%
[2]; [4]
  cancer cell survival rate compared to the DMSO control: less than 7%
[3]; about 10^−6 M to about 10^−5 M
  cancer cell survival rate compared to the DMSO control: less than 7%

## Cc1cc(NC(=O)CSc2nc3cc4c(cc3cc2C#N)OCCO4)n(C)n1 [AP-R357, 2-((8-cyano-2,3-dihydro-[1,4]dioxino[2,3-g]quinolin-7-yl)thio)-N-(1,3-dimethyl-1H-pyrazol-5-yl)acetamide]
[1]; about 30 μM, 72 hours
  cancer cell survival rate compared to the DMSO control: less than 6%
[2]; about 30 μM, 72 hours
  cancer cell survival rate compared to the DMSO control: less than 20%
[3]; about 30 μM
  cancer cell survival rate compared to the DMSO control: less than 7%

## Cc1ccc(CN2CCCC2)cc1NC(=O)CSc1nc2cc3c(cc2cc1C#N)OCCO3 [AP-R235, 2-[(8-cyano-2,3-dihydro-[1,4]dioxino[2,3-g]quinolin-7-yl)sulfanyl]-N-[2-methyl-5-(pyrrolidin-1-ylmethyl)phenyl]acetamide hydrochloride]
[2]; about 10 μM, 72 hours
  cancer cell survival rate compared to the DMSO control: less than 10%
[3]; about 10 μM
  cancer cell survival rate compared to the DMSO control: less than 2%

## N#Cc1cc2cc3c(cc2nc1SCC(=O)Nc1ccccc1C(N)=O)OCCO3 [AP-R230, 2-[2-(8-cyano-2H,3H-[1,4]dioxino[2,3-g]quinolin-7-ylsulfanyl)acetamido]benzamide]
[2]; about 5 μM to about 10 μM, 72 hours
  cancer cell survival rate compared to the DMSO control: less than 4%
[3]; about 5 μM to about 10 μM
  cancer cell survival rate compared to the DMSO control: less than 4%

## Cc1cc(F)ccc1NC(=O)CSc1nc2cc3c(cc2cc1C#N)OCCO3 [AP-R343, 2-({8-cyano-2H,3H-[1,4]dioxino[2,3-g]quinolin-7-yl}sulfanyl)-N-(4-fluoro-2-methylphenyl)acetamide]
[1]; [4]
  cancer cell survival rate compared to the DMSO control: less than 5%
[2]; [4]
  cancer cell survival rate compared to the DMSO control: less than 5%
[3]; about 10^−6 M to about 10^−5 M
  cancer cell survival rate compared to the DMSO control: less than 5%

## Cc1cc(C(=O)Nc2ccc(CN3CCN(C)CC3)cc2)ccc1NC(=O)CSc1nc2cc3c(cc2cc1C#N)OCCO3 [AP-R234, 4-[2-(8-cyano-2H,3H-[1,4]dioxino[2,3-g]quinolin-7-ylsulfanyl)acetamido]-3-methyl-N-4-[(4-methylpiperazin-1-yl)methyl]phenylbenzamide hydrochloride]
[2]; dosage printed as 'about M', 72 hours
  cancer cell survival rate compared to the DMSO control: less than 4%
[3]; dosage printed as 'about M'
  cancer cell survival rate compared to the DMSO control: less than 4%

## Cc1nn(C)cc1NC(=O)CSc1nc2cc3c(cc2cc1C#N)OCCO3 [AP-R358, 2-((8-cyano-2,3-dihydro-[1,4]dioxino[2,3-g]quinolin-7-yl)thio)-N-(1,3-dimethyl-1H-pyrazol-4-yl)acetamide]
[1]; at 0.625 (unit uncertain)
  cell survival: above 90%
[1]; at 10 (unit uncertain)
  cell survival: about 20%
[2]; at 0.625 (unit uncertain)
  cell survival: above 90%
[2]; at 10 (unit uncertain)
  cell survival: about 20%
[3]; at 0.625 (unit uncertain)
  cell survival: above 90%
[3]; at 10 (unit uncertain)
  cell survival: about 20%

## Cc1cc(CN2CCCC2)ccc1NC(=O)CSc1nc2cc3c(cc2cc1C#N)OCCO3 [AP-R352, 2-((8-cyano-2,3-dihydro-[1,4]dioxino[2,3-g]quinolin-7-yl)thio)-N-(2-methyl-4-(pyrrolidin-1-ylmethyl)phenyl)acetamide dihydrochloride]
[1]; 72 hours, read-out: IC50 for cell killing
  IC50: 540 nM
[2]; Homo sapiens, 72 hours, read-out: IC50 for cell killing
  IC50: 1090 nM
[3]; Mus musculus, BaF3, 72 hours, read-out: IC50 for cell killing
  IC50: 800 nM
